# Experimental data taken from patent US12303517B1, “Oral testosterone therapy” (Lipocine, Inc., priority 2016, dated 2025).
# Experiment: Randomized double-blind placebo-controlled dose escalating clinical study of oral T13 in hypogonadal males (serum testosterone pharmacokinetics)
# Type: in vivo, human
# Details: for T Cavg (±SD) / T Cmax (±SD) / % with Cavg/day > 300 ng/dL / % with Cmax/dose < 1,500 ng/dL: hypogonadal males; for % with Cavg/day > 300 ng/dL / % with Cmax/dose < 1,500 ng/dL: serum T
# Experimental: Dosage Form Example B of Composition 4 with dosing regimen (Regimen #. 1-9) of dosing category BID-equal dose with daily dose range 500-1250 mg of T13 in this invention were used for a clinic study of Testosterone Therapy for hypogonadal males.
# This Clinical Study is a Randomized Double-Blind, Placebo-Controlled Dose Escalating Study of the Safety, Efficacy, Tolerability, and Pharmacokinetics of Testosterone Therapy in Hypogonadal Males. This clinic study was a single and multiple, ascending-dose study that was designed to determine the optimal starting, titration (if appropriate), or single fixed dose for safety and efficacy targeted by US FDA. The study also verified the time for testosterone levels to reach steady state and identified a suitable single fixed dose dosing regimen that satisfies unmet need for safety and efficacy for oral TRT.
# This study was carried out with conditions of a single-center, randomized, double-blind, placebo-controlled, ascending multiple-dose, and serial-group in adult hypogonadal male subjects. The objectives of this study were: • a) To assess the safety, efficacy, and tolerability of escalating single and multiple oral doses of T13 dosage forms in hypogonadal males • b) To determine the pharmacokinetics (PK) of testosterone (T), DHT, TT, DHTT, and estradiol (E2) after single and multiple oral doses of TT dosage forms in hypogonadal males • c) To identify single fixed dose dosing regimen satisfying USFDA target, not needing to titrate for restoring average serum T levels in hypogonadal males to the normal T range.
# The dosing regimen for this clinic study ranged from 500 mg daily dose to 1250 mg daily dose with […]. Observed pharmacokinetic parameters (T, DHT, T13, DHTT, and E2) after single and multiple oral doses of T13 dosage forms in the patients were recorded by each daily dose in the report. […] The overall analyzed results of this clinic study were plotted according to % of patients for safety (Cmax <1,500 ng/dL) and efficacy (Cavg >300 ng/dL) with a variety of dosing regimen. Its results are shown in the below table.
# [1] = 750 mg T13 QD dose at steady state (14 days)
# [2] = daily dose 500 mg T13 (equivalent T dose 298 mg)
# [3] = daily dose 700 mg T13 (equivalent T dose 417 mg)
# [4] = daily dose 750 mg T13 QD (equivalent T dose 446 mg)
# [5] = daily dose 800 mg T13 (equivalent T dose 476 mg)
# [6] = daily dose 900 mg T13 (equivalent T dose 536 mg)
# [7] = daily dose 1000 mg T13 QD (equivalent T dose 595 mg)
# [8] = daily dose 1100 mg T13 (equivalent T dose 655 mg)
# [9] = daily dose 1150 mg T13 (equivalent T dose 685 mg)
# [10] = daily dose 1250 mg T13 (equivalent T dose 744 mg)
smiles,measurement,setting,value
"CCCCCCCCCCCCC(=O)O[C@H]1CC[C@H]2[C@@H]3CCC4=CC(=O)CC[C@]4(C)[C@H]3CC[C@]12C [T13, testosterone tridecanoate]",T Cavg (±SD),[1],352 (±41) ng/dL
same,T Cmax (±SD),[1],822 (±254) ng/dL
same,T Cavg (±SD),1000 mg QD dose at steady state (14 days),405 (±148) ng/dL
same,T Cmax (±SD),1000 mg T13 QD dose at steady state (14 days),930 (±326) ng/dL
same,% with Cavg/day > 300 ng/dL,[2],36.3%
same,"% with Cmax/dose < 1,500 ng/dL",[2],100.0%
same,% with Cavg/day > 300 ng/dL,[3],71.5%
same,"% with Cmax/dose < 1,500 ng/dL",[3],100.0%
same,% with Cavg/day > 300 ng/dL,[4],76.2%
same,"% with Cmax/dose < 1,500 ng/dL",[4],99.5%
same,% with Cavg/day > 300 ng/dL,[5],80.0%
same,"% with Cmax/dose < 1,500 ng/dL",[5],98.8%
same,% with Cavg/day > 300 ng/dL,[6],85.0%
same,"% with Cmax/dose < 1,500 ng/dL",[6],96.7%
same,% with Cavg/day > 300 ng/dL,[7],88.1%
same,"% with Cmax/dose < 1,500 ng/dL",[7],92.8%
same,% with Cavg/day > 300 ng/dL,[8],90.0%
same,"% with Cmax/dose < 1,500 ng/dL",[8],85.6%
same,% with Cavg/day > 300 ng/dL,[9],90.7%
same,"% with Cmax/dose < 1,500 ng/dL",[9],80.0%
same,% with Cavg/day > 300 ng/dL,[10],91.6%
same,"% with Cmax/dose < 1,500 ng/dL",[10],66.8%
same,US FDA T level target for safety and efficacy for testosterone replacement therapy,"single fixed dose, no titration, 750 mg to 1100 mg daily dose of T13",satisfies US FDA T level target for safety and efficacy
